Assay [1] deals with T1, GST tagged LXRbeta LBD (ligand binding domain) (Homo sapiens, UniProt P55055).
T1 construct: purchased Invitrogen pv4658.pps
T1 sequence (P55055 222-460 limits assumed): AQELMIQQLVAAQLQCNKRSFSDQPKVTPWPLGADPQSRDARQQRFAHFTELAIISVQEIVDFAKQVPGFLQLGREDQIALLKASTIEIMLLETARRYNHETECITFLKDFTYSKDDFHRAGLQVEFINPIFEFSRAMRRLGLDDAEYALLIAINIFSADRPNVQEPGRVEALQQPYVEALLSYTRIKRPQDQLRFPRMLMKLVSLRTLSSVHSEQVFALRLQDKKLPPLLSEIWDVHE
As to the kind of experiment: LanthaScreen TR-FRET Liver X Receptor Coactivator Assay, LXR beta-LBD. Format: biochemical. As to conditions: relative to reference T0901317; for pEC50: Inflection Point (potency), co-activator recruitment, read-out: LXR beta IP; for Emax: activity at max dose (efficacy), read-out: LXR beta act @ max dose (%). The procedure, abridged:
(§1)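 Values are inflection points (potency) and Emax (efficacy) expressed against reference agonist T0901317. Coactivator recruitment is measured by TR-FRET between terbium anti-GST antibody on the LBD and a fluorescein-labelled peptide, following room-temperature incubation.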
On the technique in general: Time-resolved FRET reads energy transfer from a long-lived donor to a nearby acceptor.

The target in assay [2] is T2, GST tagged LXRalpha LBD (ligand binding domain) (Homo sapiens, UniProt Q13133).
T2 construct: purchased Invitrogen pv4655
T2 sequence (Q13133 209-447 limits assumed): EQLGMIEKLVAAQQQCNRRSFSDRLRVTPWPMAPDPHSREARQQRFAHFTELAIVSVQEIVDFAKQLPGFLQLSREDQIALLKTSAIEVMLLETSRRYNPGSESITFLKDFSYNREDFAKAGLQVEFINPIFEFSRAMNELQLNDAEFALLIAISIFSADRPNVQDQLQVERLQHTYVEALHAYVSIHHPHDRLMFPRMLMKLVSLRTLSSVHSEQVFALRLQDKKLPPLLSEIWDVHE
The experiment in a line: LanthaScreen TR-FRET Liver X Receptor Coactivator Assay, LXR alpha-LBD. In kind it is biochemical. As to conditions: relative to reference T0901317; for pEC50 / LXR alpha IP (nM): Inflection Point (potency), co-activator recruitment; for pEC50: read-out: LXR alpha IP; for Emax: activity at max dose (efficacy), read-out: LXR alpha act @ max dose (%). The method, boiled down:
as §1

pEC50: −log10 of the molar value.

Take `CN(C)C(=O)c1ccc(N2CCC(C3CCN(C(=O)c4c(F)cccc4F)CC3)CC2)cc1Cl` [Example A-23, 2-chloro-4-{1′-[(2,6-difluorophenyl)carbonyl]-4,4′-bipiperidin-1-yl}-N,N-dimethylbenzamide]: in assay [1], the pEC50 was 7.10 and the Emax was 92%. For the same molecule, in assay [2], the pEC50 was 5.53 and the Emax was 23%.

As to `CC(C)CC(O)(C(=O)N1CCC(C2CCN(c3ccc(C(=O)N(C)C)c(Cl)n3)CC2)CC1)C(F)(F)F` (stereo not shown) [Example B-7, 2-chloro-6-{1′-[2-hydroxy-4-methyl-2-(trifluoromethyl)pentanoyl]-4,4′-bipiperidin-1-yl}-N,N-dimethylpyridine-3-carboxamide], in assay [1], the pEC50 was 7.14 and the Emax stood at 127%. In assay [2], the pEC50 was 5.84 and the Emax was determined as 55%.

As to `Cc1ccc(C2(C(=O)N3CCC(C4CCN(c5ccc(C(=O)N(C)C)c(Cl)c5)CC4)CC3)CCC2)cc1` [Example A-72, 2-chloro-N,N-dimethyl-4-(1′-{[1-(4-methylphenyl)cyclobutyl]carbonyl}-4,4′-bipiperidin-1-yl)benzamide], in assay [1], the pEC50 was 6.95 and the Emax came to 96%. Further, in assay [2], the pEC50 is 5.90 and the Emax was 30%.

On to `CN(C)C(=O)c1ccc(N2CCC(C3CCN(C(=O)C(O)(C(F)(F)F)C(F)(F)F)CC3)CC2)nc1Cl` [Example B-15, 2-chloro-N,N-dimethyl-6-{1′-[3,3,3-trifluoro-2-hydroxy-2-(trifluoromethyl)propanoyl]-4,4′-bipiperidin-1-yl}pyridine-3-carboxamide], for which, in assay [1], the pEC50 was 7.47 and the Emax stood at 121%. In addition, in assay [2], the pEC50 was 5.65 and the Emax worked out at 87%.

On to `O=C(c1ccc(N2CCC(C3CCN(C(=O)[C@](O)(c4ccccc4)C(F)(F)F)CC3)CC2)cc1Cl)N1CCCC1C(F)(F)F` (stereo partly drawn) [Example E-21, (2R)-3-[1′-(3-chloro-4-{[2-(trifluoromethyl)pyrrolidin-1-yl]carbonyl}phenyl)-4,4′-bipiperidin-1-yl]-1,1,1-trifluoro-3-oxo-2-phenylpropan-2-ol], for which, in assay [1], the pEC50 was 7.02 and the Emax was 62%. Further, in assay [2], the “LXR alpha IP (nM)” value was “NO IP” and the Emax turned out to be 13%.

Turning to `Cc1nc(N2CCC(C3CCN(C(=O)C(O)(C(C)C)C(F)(F)F)CC3)CC2)ccc1C(=O)N(C)C` (stereo not shown) [Example C-1, 6-(1′-(2-Hydroxy-3-methyl-2-(trifluoromethyl)butanoyl)-[4,4′-bipiperidin]-1-yl)-N,N,2-trimethylnicotinamide], the pEC50 in assay [1] is 6.83; in assay [2], 7.68. For the same molecule, the Emax in assay [1] came out at 101%; in assay [2], 24%.

Regarding `CN(C)C(=O)c1ccc(N2CCC(C3CCN(C(=O)C(O)(c4cccc(F)c4)C(F)(F)F)CC3)CC2)cc1Cl` (stereo not shown) [Example A-95, 2-chloro-N,N-dimethyl-4-{1′-[3,3,3-trifluoro-2-(3-fluorophenyl)-2-hydroxypropanoyl]-4,4′-bipiperidin-1-yl}benzamide], in assay [1], the pEC50 was 7.08 and the Emax amounted to 116%. Also, in assay [2], the pEC50 is 5.87 and the Emax was 38%.

Take `COCCCN(C)C(=O)c1ccc(N2CCC(C3CCN(C(=O)[C@](O)(c4ccccc4)C(F)(F)F)CC3)CC2)cc1Cl` [Example E-48, 2-chloro-N-(3-methoxyproply)-N-methyl-4-{1′-[(2R)-3,3,3-trifluoro-2-hydroxy-2-phenylpropanoyl]-4,4′-bipiperidin-1-yl}benzamide]: in assay [1], the pEC50 is 6.76 and the Emax was determined as 106%. In assay [2], the pEC50 is 5.77 and the Emax was determined as 26%.

In the case of `COc1ccccc1C(O)(C(=O)N1CCC(C2CCN(c3ccc(C(=O)N(C)C)c(Cl)c3)CC2)CC1)C(F)(F)F` (stereo not shown) [Example A-97, 2-chloro-N,N-dimethyl-4-{1′-[3,3,3-trifluoro-2-hydroxy-2-(2-methoxyphenyl)propanoyl]-4,4′-bipiperidin-1-yl}benzamide], in assay [1], the pEC50 was 6.94 and the Emax was 100%. Besides, in assay [2], the pEC50 is 5.61 and the Emax turned out to be 37%.

Consider `CC(C)(C)OC(=O)N1CCC(C2CCN(c3ccc(C(C)(C)O)c(Cl)c3)CC2)CC1` [Example E-69, tert-butyl 1′-[3-chloro-4-(1-hydroxy-1-methylethyl)phenyl]-4,4′-bipiperidine-1-carboxylate], for which the pEC50 in assay [1] is 6.49; in assay [2] it was 6.00. For the same molecule, the Emax in assay [1] turned out to be 69%; in assay [2], 56%.

As to `CC1(C)CCN(C(=O)c2ccc(N3CCC(C4CCN(C(=O)[C@](O)(c5ccccc5)C(F)(F)F)CC4)CC3)cc2Cl)C1` [Example E-28, (2R)-3-(1′-{3-chloro-4-[(3,3-dimethylpyrrolidin-1-yl)carbonyl]phenyl}-4,4′-bipiperidin-1-yl)-1,1,1-trifluoro-3-oxo-2-phenylpropan-2-ol], in assay [1], the pEC50 was 6.70 and the Emax is 57%. Besides, in assay [2], the “LXR alpha IP (nM)” value is reported as “NO IP” and the Emax stood at 15%.

Turning to `CC[C@](O)(C(=O)N1CCC(C2CCN(c3ccc(C(=O)N(C)C)c(Cl)c3)CC2)CC1)C(F)(F)F` (single isomer, unassigned) [Example A-42], in assay [1], the pEC50 is 7.21 and the Emax worked out at 117%. Besides, in assay [2], the pEC50 is 5.52 and the Emax was found to be 67%.

For `CN(C)C(=O)c1ccc(N2CCC(C3CCN(c4ccccc4Cl)CC3)CC2)cc1Cl` [Example A-107, 2-chloro-4-[1′-(2-chlorophenyl)-4,4′-bipiperidin-1-yl]-N,N-dimethylbenzamide], in assay [1], the pEC50 was 6.08 and the Emax is 62%. Also, in assay [2], the “LXR alpha IP (nM)” value is given as “NO IP” and the Emax turned out to be 17%.

For the molecule `CC(C)S(=O)(=O)c1ccc(N2CCC(C3CCN(C(=O)[C@](O)(c4ccccc4)C(F)(F)F)CC3)CC2)cc1Cl` [Example D-5, (2R)-3-(1′-{3-chloro-4-[(1-methylethyl)sulfonyl]phenyl}-4,4′-bipiperidin-1-yl)-1,1,1-trifluoro-3-oxo-2-phenylpropan-2-ol], the results for the pEC50 in assay [1] and in assay [2] were 6.38 and 5.82, respectively. Besides, the Emax in assay [1] is 86%; in assay [2] it was 28%.

For the molecule `COc1cccc(C(O)(C(=O)N2CCC(C3CCN(c4ccc(C(=O)N(C)C)c(Cl)c4)CC3)CC2)C(F)(F)C(F)(F)F)c1` (stereo not shown) [Example A-81, 2-chloro-N,N-dimethyl-4-{1′-[3,3,4,4,4-pentafluoro-2-hydroxy-2-(3-methoxyphenyl)butanoyl]-4,4′-bipiperidin-1-yl}benzamide], in assay [1], the pEC50 was 6.55 and the Emax was determined as 104%. In assay [2], the pEC50 was 5.44 and the Emax worked out at 25%.

For the molecule `Cc1nc(CCN(C)C(=O)c2ccc(N3CCC(C4CCN(C(=O)[C@](O)(c5ccccc5)C(F)(F)F)CC4)CC3)cc2Cl)no1` [Example E-55, 2-chloro-N-methyl-N-[2-(5-methyl-1,2,4-oxadiazol-3-yl)ethyl]-4-{1′-[(2R)-3,3,3-trifluoro-2-hydroxy-2-phenylpropanoyl]-4,4′-bipiperidin-1-yl}benzamide], in assay [1], the pEC50 is 7.18 and the Emax came to 106%. Besides, in assay [2], the pEC50 was 5.95 and the Emax is 41%.

These data come from patent US20180305332A1, “Bispiperidinyl Derivatives as Liver X Receptor Beta Agonists, Compositions, and Their Use” (Merck Sharp & Dohme Corp., priority 2015, published 2018).
